Test results from patent US8987193B2, “Nisin derivatives and the use thereof” (University College Cork—National University of Ireland, Cork, priority 2008, dated 2015).
“Also recorded” adds a separate entry of the source. Ends that are not written are not given here.

Legend:
L. plantarum CBC6 = experiment: Deferred antagonism assay; type: cell-based, Lactobacillus plantarum; parameters: key: + = Enhanced bioactivity relative to control; − = Bioactivity equal to or less than control; NA = no activity evident; conditions: XX and XXX hinge mutant producers
Experimental: (§1) Deferred antagonism assays were performed by replicating strains on GM17 or GM17 x-gal agar plates and allowing them to grow overnight before overlaying with either GM17/BHI/TS/MH agar (0.75% w/v agar) seeded with the appropriate indicator strain. Zone size was calculated as the diameter of the zone of clearing minus the diameter of bacterial growth (5 mm) For higher throughput screening of N20PXX, XM21VX, XXK22T and XXX banks deferred antagonism assays were performed by replicating strains using a 96 pin replicator (Boekel) or spotting 5 μl of a fresh overnight culture on GM17 agar plates and allowing them to grow overnight. […] Additional sets of indicators were employed to further assess/reassess the bioactivity of a number of strains. […] For well-diffusion assays molten agar was cooled to 48° C. and seeded with the appropriate indicator strain. The inoculated medium was rapidly transferred into sterile Petri plates in 50 ml volumes, allowed to solidify and dried. Wells (4.6 mm in diameter) were then made in the seeded plates. Purified nisin and mutant nisins were resuspended in 0.005% acetic acid, serially diluted, 50 μl volumes were dispensed into the aforementioned wells and the plates incubated at 37° C. overnight. Bioactivity was expressed as arbitrary units/ml (AU/ml) and calculated as the reciprocal of the highest dilution that gave a definite zone multiplied by the conversion factor (i.e. 20 when 50 μl was used) (Ryan et al., 1996).
(§2) As a consequence of the enhanced activities of K22T and K22S, a more in-depth investigation of this region was carried out. Saturation mutagenesis was undertaken to create a bank of nisin A hinge derivatives containing the vast majority of possible amino acid substitutions for each position. Although pPTPL was used successfully for random mutagenesis, its relatively large size of approx 10.5 kb was considered unsuitable for the complete plasmid PCR amplification approach utilized for saturation mutagenesis. A smaller (approx 6 kb) E. coli-L. lactis shuttle vector pCI372 was considered to be potentially more useful. Its suitability with respect to the in trans expression of nisA was confirmed by the ability of pDFO5 to restore the nisin positive phenotype. Saturation mutagenesis was performed on each codon using pDF05 and oligonucleotides (Table 5) that replace the specific codon with a NNK triplet, potentially encoding all 20 standard amino acids. Following complete plasmid amplification and introduction into the intermediate Top10 host, sequence analysis of a pooled bank of pDF05 derivatives confirmed randomization. Introduction of these variants into L. lactis NZ9800 allowed the expression of mutant nisin A peptides for further analysis. […] 46 residue conversions were isolated. All strains, regardless of bioactivity, were assessed with a view to comprehensively assessing the consequences of each individual hinge alteration.

indicator strains = experiment: Deferred antagonism assays, various indicator strains (summary); type: cell-based; conditions: for Target strain against which the hinge mutant was selected for enhanced bioactivity: XX and XXX banks, L. lactis HP*: enhanced or equal; for Target strain against which the hinge mutant was selected for enhanced bioactivity / Strain(s) against which the derivative (producing strain) displays enhanced bioactivity: relative to nisin A-producing control; for number of targets with enhanced activity: of the 8 additional targets tested; for Strain(s) against which the derivative (producing strain) displays enhanced bioactivity: value = strains listed
Experimental: as §1

L. monocytogenes CBC2 = experiment: Deferred antagonism assay; type: cell-based, Listeria monocytogenes; parameters: key: + = Enhanced bioactivity relative to control; − = Bioactivity equal to or less than control; NA = no activity evident; conditions: L. mono CBC2; XX and XXX hinge mutant producers
Experimental: as §1, §2

L. monocytogenes CBC1 = experiment: Deferred antagonism assay; type: cell-based, Listeria monocytogenes; parameters: key: + = Enhanced bioactivity relative to control; − = Bioactivity equal to or less than control; NA = no activity evident; conditions: L. mono CBC1; XX and XXX hinge mutant producers
Experimental: as §1, §2

L. monocytogenes CBC3 = experiment: Deferred antagonism assay; type: cell-based, Listeria monocytogenes; parameters: key: + = Enhanced bioactivity relative to control; − = Bioactivity equal to or less than control; NA = no activity evident; conditions: L. mono CBC3; XX and XXX hinge mutant producers
Experimental: as §1, §2

S. aureus CBC4 = experiment: Deferred antagonism assay; type: cell-based; parameters: key: + = Enhanced bioactivity relative to control; − = Bioactivity equal to or less than control; NA = no activity evident; conditions: XX and XXX hinge mutant producers
Experimental: as §1, §2

L. lactis CBC8 = experiment: Deferred antagonism assay; type: cell-based; parameters: key: + = Enhanced bioactivity relative to control; − = Bioactivity equal to or less than control; NA = no activity evident; conditions: XX and XXX hinge mutant producers
Experimental: as §1, §2

L. lactis CBC7 = experiment: Deferred antagonism assay; type: cell-based; parameters: key: + = Enhanced bioactivity relative to control; − = Bioactivity equal to or less than control; NA = no activity evident; conditions: XX and XXX hinge mutant producers
Experimental: as §1, §2

| Substance | bioactivity relative to a nisin A-producing control (L. plantarum CBC6) | Target strain against which the hinge mutant was selected for enhanced bioactivity (indicator strains) | number of targets with enhanced activity (indicator strains) | Strain(s) against which the derivative (producing strain) displays enhanced bioactivity (indicator strains) | bioactivity relative to a nisin A-producing control (L. monocytogenes CBC2) | bioactivity relative to a nisin A-producing control (L. monocytogenes CBC1) | bioactivity relative to a nisin A-producing control (L. monocytogenes CBC3) | bioactivity relative to a nisin A-producing control (S. aureus CBC4) | bioactivity relative to a nisin A-producing control (L. lactis CBC8) | bioactivity relative to a nisin A-producing control (L. lactis CBC7) |
| --- | --- | --- | --- | --- | --- | --- | --- | --- | --- | --- |
| NisinA PMC | − | B. cereus UCC1 | 3 | L. monocytogenes CBC3, S. aureus CBC4 and L. lactis CBC7; also recorded: L. mono CBC3, S. aureus CBC4, L. lactis CBC7 | − | − | + | + | − | + |
| NisinA PML | − | Staph. aureus RF122 | 4 | S. aureus RF122, L. monocytogenes CBC2 , CBC3, and CBC4 and L. lactis CBC7 and S. aureus RF122, L. mono CBC2, CBC3, CBC4, L. lactis and CBC7 | + | − | + | + | − | + |
| NisinA PMM | − | Staph. aureus RF122 |  | B. cereus UCC1; also recorded: B. cereus UCC | − | − | − | − | − | − |
| NisinA PMQ | − | Strep. agalactiae ATCC 13813/B. cereus UCC1 | 4 | S. agalactiae ATCC13813, B. cereus UCC1, L. monocytogenes CBC3, S. aureus CBC4 , and L. lactis CBC7 , CBC8; also recorded: S. agalactiae ATCC13813, B. cereus UCC1, L. mono CBC3, | − | − | + | + | + | + |
| NisinA PMT | − | Staph. aureus RF122 |  | S. aureus RF122 | − | − | − | − | − | − |
| NisinA PNR (ITSISLCTPGCKTGALMGCPNRTATCHCSIHVSK; not fully specified (bridges); also: lantibiotic nisin-A: lanthionine rings and dehydrated residues, places not given here; UniProt P13068 24-57, looked up, variant N20P M21N K22R) [nisin A hinge variant PNR (i.e. N20P, M21N, K22R)] | − | Staph. aureus RF122 |  | S. aureus RF122 | − | − | − | − | − | − |
| NisinA PSL | − | C. sporogenes UCC1/Staph. aureus RF122 |  | C. sporogenes UCC1 and S. aureus RF122 | − | − | − | − | − | − |
| NisinA PTA | − | C. sporogenes UCC1 |  | C. sporogenes UCC1 | − | − | − | − | − | − |
| NisinA PTL (ITSISLCTPGCKTGALMGCPTLTATCHCSIHVSK; thioether (positions not given here); not fully specified (residues 2, 5, 33, bridges); also: lantibiotic nisin A, thioether rings and dehydro residues not given here; UniProt P13068 24-57, looked up, variant N20P M21T K22L) [nisin A hinge variant PTL (i.e. N20P, M21T, K22L)] | − | C. sporogenes UCC1 | 3 | C. sporogenes UCC1, L. monocytogenes CBC3 and CBC 4 , and L. lactis CBC7; also recorded: C. sporogenes UCC1, L mono CBC3, 4, L. lactis CBC7 | − | − | + | + | − | + |
